According to PMC10165928 (Journal of Enzyme Inhibition and Medicinal Chemistry, 2023):
Entries after “also recorded” stand apart in the source; their conditions may differ. Blank lines part the entries; values can stand above or below the compound they belong to.

Assays:
HDAC10 = molecular target: T1, HDAC10 (Homo sapiens, UniProt Q969S8); assay: In vitro HDAC10 inhibition assay; assay type: biochemical
T1 sequence (Q969S8 1-669): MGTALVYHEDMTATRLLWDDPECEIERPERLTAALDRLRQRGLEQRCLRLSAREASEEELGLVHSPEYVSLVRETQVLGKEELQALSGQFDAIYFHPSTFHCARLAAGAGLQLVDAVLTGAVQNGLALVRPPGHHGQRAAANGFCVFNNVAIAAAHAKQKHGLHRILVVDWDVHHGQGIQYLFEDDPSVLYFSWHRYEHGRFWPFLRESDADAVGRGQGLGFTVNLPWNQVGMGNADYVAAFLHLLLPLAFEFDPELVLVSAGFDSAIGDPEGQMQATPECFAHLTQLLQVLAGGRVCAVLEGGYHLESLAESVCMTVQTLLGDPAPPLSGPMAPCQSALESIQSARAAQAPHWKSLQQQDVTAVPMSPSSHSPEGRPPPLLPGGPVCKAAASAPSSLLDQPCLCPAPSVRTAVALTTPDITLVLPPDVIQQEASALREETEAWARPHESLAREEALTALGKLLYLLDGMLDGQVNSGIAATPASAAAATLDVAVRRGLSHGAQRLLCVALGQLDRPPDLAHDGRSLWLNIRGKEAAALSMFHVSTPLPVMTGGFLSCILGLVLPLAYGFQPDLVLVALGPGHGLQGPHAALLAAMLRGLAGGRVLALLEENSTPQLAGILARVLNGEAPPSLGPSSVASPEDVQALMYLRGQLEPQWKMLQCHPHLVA

[1] = test system: promyelocytic leukaemia HL-60 cells; assay: MTT cell growth inhibition assay, HL-60; assay type: cell-based; details: Homo sapiens, HL-60, 72 h, read-out: IC50 HL-60 cells
[2] = test system: normal human liver L-O2 cells; assay: In vitro toxicity test; assay type: cell-based; details: for IC50: Homo sapiens, L02, 72 h, read-out: IC50 L-O2 cells; for SI (selectivity index): ratio of IC50 of L-O2 cells divided by that of HL-60 cells
[3] = test system: colon cancer HCT-116 cells; assay: MTT cell growth inhibition assay, HCT-116; assay type: cell-based, human; details: for IC50: Homo sapiens, HCT-116, 72 h, read-out: IC50 HCT-116 cells
HDAC1 = HDAC1 (Homo sapiens, UniProt Q13547); assay: In vitro HDAC1 inhibition assay; assay type: biochemical; details: for IC50 HDAC1: mean ± SEM of three independent assays, NA: IC50 not apparent even with the compound tested >10 μM; for SI (selectivity index): ratio of IC50 of HDAC6 divided by that of HDAC1
HDAC1, sequence (Q13547 whole entry): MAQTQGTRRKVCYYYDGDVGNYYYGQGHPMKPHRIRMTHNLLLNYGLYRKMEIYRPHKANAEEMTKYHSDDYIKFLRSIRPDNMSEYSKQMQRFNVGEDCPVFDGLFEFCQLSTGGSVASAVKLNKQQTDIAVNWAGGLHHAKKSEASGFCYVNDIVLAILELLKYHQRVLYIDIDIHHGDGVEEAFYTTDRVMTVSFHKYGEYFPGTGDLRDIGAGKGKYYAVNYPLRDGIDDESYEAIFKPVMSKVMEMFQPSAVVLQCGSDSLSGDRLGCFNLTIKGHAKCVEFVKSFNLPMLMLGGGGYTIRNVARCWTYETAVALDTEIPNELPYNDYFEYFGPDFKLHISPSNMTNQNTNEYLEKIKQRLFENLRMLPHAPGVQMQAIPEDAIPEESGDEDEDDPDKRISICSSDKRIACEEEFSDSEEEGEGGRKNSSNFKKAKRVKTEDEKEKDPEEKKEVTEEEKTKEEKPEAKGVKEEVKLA

HL-60 cells [4] = assay: Western blot analysis in HL-60 cells; assay type: cell-based, human; details: 48 h; for histone H3 acetylation (Ac-H3) level: different concentrations; for expression of Rb / expression of p-Rb / expression of γ-H2AX: increasing concentration
HL-60 cells [5] = assay: Cell apoptosis detection; assay type: cell-based, human; details: HL-60, 48 h
HDAC6 = molecular target: T2, HDAC6 (Homo sapiens, UniProt Q9UBN7); assay: In vitro HDAC6 inhibition assay; assay type: biochemical; details: mean ± SEM of three independent assays; NA: IC50 not apparent even with the compound tested >10 μM
T2 sequence (Q9UBN7 1-1215): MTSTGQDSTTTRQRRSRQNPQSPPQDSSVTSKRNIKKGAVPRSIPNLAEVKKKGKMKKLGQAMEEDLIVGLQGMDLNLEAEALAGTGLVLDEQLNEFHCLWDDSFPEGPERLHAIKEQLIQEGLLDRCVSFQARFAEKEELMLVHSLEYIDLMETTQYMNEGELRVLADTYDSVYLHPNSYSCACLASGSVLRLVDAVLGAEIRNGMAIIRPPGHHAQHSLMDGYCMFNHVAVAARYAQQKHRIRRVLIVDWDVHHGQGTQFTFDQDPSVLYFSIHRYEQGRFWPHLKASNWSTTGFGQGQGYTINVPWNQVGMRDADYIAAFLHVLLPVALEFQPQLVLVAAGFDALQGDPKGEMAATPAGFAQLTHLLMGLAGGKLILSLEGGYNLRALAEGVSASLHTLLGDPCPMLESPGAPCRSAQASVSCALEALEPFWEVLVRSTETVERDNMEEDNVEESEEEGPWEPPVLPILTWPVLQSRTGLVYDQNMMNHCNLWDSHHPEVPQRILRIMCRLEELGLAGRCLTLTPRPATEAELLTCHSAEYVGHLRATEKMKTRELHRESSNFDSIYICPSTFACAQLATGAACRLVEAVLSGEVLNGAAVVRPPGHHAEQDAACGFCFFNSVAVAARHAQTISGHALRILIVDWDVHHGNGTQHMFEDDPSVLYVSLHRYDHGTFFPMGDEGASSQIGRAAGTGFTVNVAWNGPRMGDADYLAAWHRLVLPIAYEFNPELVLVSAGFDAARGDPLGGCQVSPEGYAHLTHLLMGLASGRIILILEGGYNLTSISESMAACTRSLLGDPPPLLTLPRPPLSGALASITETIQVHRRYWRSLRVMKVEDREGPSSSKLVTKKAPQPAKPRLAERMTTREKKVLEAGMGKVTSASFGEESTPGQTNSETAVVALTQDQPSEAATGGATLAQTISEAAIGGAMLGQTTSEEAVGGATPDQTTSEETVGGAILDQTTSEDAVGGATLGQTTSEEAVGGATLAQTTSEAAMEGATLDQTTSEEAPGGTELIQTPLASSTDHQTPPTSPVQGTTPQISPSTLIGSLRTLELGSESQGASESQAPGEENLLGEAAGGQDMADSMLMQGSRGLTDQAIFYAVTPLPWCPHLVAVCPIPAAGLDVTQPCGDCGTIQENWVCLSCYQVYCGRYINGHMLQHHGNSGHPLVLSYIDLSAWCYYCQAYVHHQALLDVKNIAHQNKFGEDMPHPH

HDAC8 = molecular target: T3, HDAC8 (Homo sapiens, UniProt Q9BY41); assay: In vitro HDAC8 inhibition assay; assay type: biochemical; details: for IC50 HDAC8: mean ± SEM of three independent assays
T3 sequence (Q9BY41 1-377): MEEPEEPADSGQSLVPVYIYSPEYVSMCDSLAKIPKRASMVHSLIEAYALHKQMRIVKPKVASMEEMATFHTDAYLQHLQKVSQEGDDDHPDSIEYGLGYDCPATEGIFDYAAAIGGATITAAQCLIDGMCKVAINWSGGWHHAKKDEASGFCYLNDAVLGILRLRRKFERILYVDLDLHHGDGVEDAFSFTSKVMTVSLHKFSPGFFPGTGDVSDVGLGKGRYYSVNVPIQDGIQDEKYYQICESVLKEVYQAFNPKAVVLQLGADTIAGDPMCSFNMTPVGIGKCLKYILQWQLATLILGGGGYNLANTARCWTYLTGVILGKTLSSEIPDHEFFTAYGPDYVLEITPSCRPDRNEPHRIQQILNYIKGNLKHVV

HDAC3 = HDAC3 (Homo sapiens, UniProt O15379); assay: In vitro HDAC3 inhibition assay; assay type: biochemical
HDAC3, sequence (O15379 whole entry): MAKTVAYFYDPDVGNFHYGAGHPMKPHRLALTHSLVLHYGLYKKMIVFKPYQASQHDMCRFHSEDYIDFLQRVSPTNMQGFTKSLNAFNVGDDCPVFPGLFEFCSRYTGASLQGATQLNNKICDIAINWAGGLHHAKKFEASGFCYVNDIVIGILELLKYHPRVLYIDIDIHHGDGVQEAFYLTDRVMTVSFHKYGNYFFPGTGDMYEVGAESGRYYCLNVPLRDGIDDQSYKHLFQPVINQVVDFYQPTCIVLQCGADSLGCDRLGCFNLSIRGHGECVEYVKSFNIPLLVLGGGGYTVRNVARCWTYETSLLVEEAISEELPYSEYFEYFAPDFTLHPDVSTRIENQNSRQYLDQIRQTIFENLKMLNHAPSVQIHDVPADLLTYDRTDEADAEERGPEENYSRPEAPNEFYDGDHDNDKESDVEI
HDAC3, sequence (Q9Y618 395-489 partner limits assumed): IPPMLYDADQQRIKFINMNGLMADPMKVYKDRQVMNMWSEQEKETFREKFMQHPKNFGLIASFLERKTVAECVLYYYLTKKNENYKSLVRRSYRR

HL-60 cells [6] = assay: Cell cycle analysis by flow cytometry; assay type: cell-based, human; details: HL-60, 48 h

Compound: Nc1cc(F)ccc1NC(=O)c1ccc(CNC(=O)/C=C/c2cccnc2)cc1 [Chidamide, chidamide, reference compound]
- IC50 (HDAC10): 259 ± 23 nM
- IC50 [1]: 860 ± 70 nM
- IC50 [2]: 8870 ± 930 nM
- IC50 [3]: 3860 ± 1080 nM

Compound: Nc1cc(F)ccc1NC(=O)c1ccc(Cl)c2c(=O)c3cccc([N+](=O)[O-])c3[nH]c12 [Compound 8a, N-(2-amino-4-fluorophenyl)-1-chloro-5-nitro-9-oxo-9,10-dihydroacridine-4-carboxamide]
- IC50 HDAC1 (HDAC1): completely lost

Compound: COc1cccc2c(=O)c3c(Cl)ccc(C(=O)NCCCC(=O)Nc4ccccc4N)c3[nH]c12 [Compound 11a, N-(4-((2-aminophenyl)amino)-4-oxobutyl)-1-chloro-5-methoxy-9-oxo-9,10-dihydroacridine-4-carboxamide]
- IC50 [1]: 13200 ± 2430 nM
- IC50 (HDAC1): 4090 ± 273 nM
- SI (selectivity index) (HDAC1): >2.4
- IC50 HCT-116 cells ([3]; MTT, 72 h, mean ± SEM of three assays, NA: IC50 not apparent even with the compound tested >50 μM): no anti-proliferation activity

Compound: COc1cccc2c(=O)c3c(Cl)ccc(C(=O)NCCCCCC(=O)Nc4ccccc4N)c3[nH]c12 [Compound 11b, N-(6-((2-aminophenyl)amino)-6-oxohexyl)-1-chloro-5-methoxy-9-oxo-9,10-dihydroacridine-4-carboxamide]
- IC50 (HDAC10): 387 ± 64 nM
- histone H3 acetylation (Ac-H3) level (HL-60 cells [4]): significantly induced histone H3 acetylation
- expression of Rb (HL-60 cells [4]): significantly down-regulated
- expression of p-Rb (HL-60 cells [4]): significantly down-regulated
- expression of γ-H2AX (HL-60 cells [4]): up-regulated
- proportion of apoptotic cells (HL-60 cells [5]; 2.5 μM): 85.8%
- IC50 HDAC6 (HDAC6): no inhibitory effect; also recorded: no inhibitory activity
- IC50 [1]: 560 ± 30 nM
- IC50 [2]: 5000 ± 330 nM
- SI (selectivity index) [2]: 8.9
- IC50 (HDAC8): > 5000 nM
- IC50 HDAC8 (HDAC8): no inhibitory effect; also recorded: no inhibitory activity
- IC50 (HDAC1): 227 ± 9 nM
- SI (selectivity index) (HDAC1): >44.1
- IC50 (HDAC3): 418 ± 40 nM
- proportion of cells in S phase (HL-60 cells [6]; 0.1 μM): 49.1%
- proportion of cells in S phase (HL-60 cells [6]; 0.5 μM): 50.4%
- proportion of cells in S phase (HL-60 cells [6]; 2.5 μM): 59.2%
- IC50 [3]: 3170 ± 260 nM

Compound: COc1cccc2c(=O)c3c(Cl)ccc(C(=O)NCCCCCCC(=O)Nc4ccccc4N)c3[nH]c12 [Compound 11c, N-(7-((2-aminophenyl)amino)-7-oxoheptyl)-1-chloro-5-methoxy-9-oxo-9,10-dihydroacridine-4-carboxamide]
- IC50 (HDAC10): 177 ± 8 nM
- histone H3 acetylation (Ac-H3) level (HL-60 cells [4]): significantly induced histone H3 acetylation
- expression of Rb (HL-60 cells [4]): significantly down-regulated
- expression of p-Rb (HL-60 cells [4]): significantly down-regulated
- expression of γ-H2AX (HL-60 cells [4]): up-regulated
- proportion of apoptotic cells (HL-60 cells [5]; 5 μM): 70.3%
- IC50 HDAC6 (HDAC6): no inhibitory effect; also recorded: no inhibitory activity
- IC50 [1]: 1240 ± 80 nM
- IC50 [2]: 7190 ± 1520 nM
- SI (selectivity index) [2]: 5.8
- IC50 (HDAC8): > 5000 nM
- IC50 HDAC8 (HDAC8): no inhibitory effect; also recorded: no inhibitory activity
- IC50 (HDAC1): 87 ± 3 nM
- SI (selectivity index) (HDAC1): >114.9
- IC50 (HDAC3): 225 ± 9 nM
- proportion of cells in S phase (HL-60 cells [6]; 0.2 μM): 48.4%
- proportion of cells in S phase (HL-60 cells [6]; 1 μM): 52.7%
- proportion of cells in S phase (HL-60 cells [6]; 5 μM): 58.4%
- IC50 [3]: 4210 ± 570 nM

Compound: COc1cccc2c(=O)c3c(Cl)ccc(C(=O)NCCCCCCC(=O)Nc4ccc(F)cc4N)c3[nH]c12 [Compound 11d, N-(7-((2-amino-4-fluorophenyl)amino)-7-oxoheptyl)-1-chloro-5-methoxy-9-oxo-9,10-dihydroacridine-4-carboxamide]
- IC50 [1]: 10200 ± 3200 nM
- IC50 (HDAC1): 247 ± 38 nM
- SI (selectivity index) (HDAC1): >40.5
- IC50 [3]: 7510 ± 740 nM

Second part, the compound after the results:

- IC50 HDAC1 (HDAC1): completely lost
Compound: Cc1c(C(=O)Nc2ccccc2N)cc(Br)c2c(=O)c3ccccc3[nH]c12 [Compound 16a, N-(2-aminophenyl)-1-bromo-4-methyl-9-oxo-9,10-dihydroacridine-3-carboxamide]

- IC50 HDAC1 (HDAC1): completely lost
Compound: Cc1c(C(=O)Nc2ccc(Br)cc2N)cc(Br)c2c(=O)c3ccccc3[nH]c12 [Compound 16b, N-(2-amino-4-bromophenyl)-1-bromo-4-methyl-9-oxo-9,10-dihydroacridine-3-carboxamide]
